Assay results taken from ChEMBL document CHEMBL1139154, “Inhibitors of HCV NS5B polymerase: synthesis and structure-activity relationships of unsymmetrical 1-hydroxy-4,4-dialkyl-3-oxo-3,4-dihydronaphthalene benzothiadiazine derivatives” (Bioorg Med Chem Lett, 2007).

How the values were obtained:
Hepatitis C virus [1] = assay: Inhibition of HCV 1b NS5B polymerase; design: species or system Hepatitis C virus subtype 1b
Hepatitis C virus [2] = assay: Antiviral activity against HCV 1a replicon in presence of fetal calf serum; type: functional, organism-based, Hepacivirus hominis; settings: subtype 1a
[3] = Inhibition of HCV 1a NS5B polymerase; design: species or system Hepatitis C virus subtype 1a

SMILES	IC50 (Hepatitis C virus [1]) [nM]	EC50 (Hepatitis C virus [2]) [nM]	IC50 [3] [nM]
CC1(CCCc2ccccc2)C(=O)C(C2=NS(=O)(=O)c3cc(NS(C)(=O)=O)ccc3N2)=C(O)c2ccccc21 (stereo not drawn)	280		115
CC1(CC=C2CCC2)C(=O)C(C2=NS(=O)(=O)c3cc(NS(C)(=O)=O)ccc3N2)=C(O)c2ccccc21 (stereo not drawn)	425	1190	87
CC1(CC=C2CCCC2)C(=O)C(C2=NS(=O)(=O)c3cc(NS(C)(=O)=O)ccc3N2)=C(O)c2ccccc21 (stereo not drawn)	550	1490	93
CC1(C)C(=O)C(C2=NS(=O)(=O)c3cc(NS(C)(=O)=O)ccc3N2)=C(O)c2ccccc21			933
CC1(C/C=C/c2ccccc2)C(=O)C(C2=NS(=O)(=O)c3cc(NS(C)(=O)=O)ccc3N2)=C(O)c2ccccc21 (stereo not drawn)	1850		460
CC(C)CCC1(CCC(C)C)C(=O)C(C2=NS(=O)(=O)c3cc(NS(C)(=O)=O)ccc3N2)=C(O)c2ccccc21		423	68
CCOC(=O)/C=C/CC1(C)C(=O)C(C2=NS(=O)(=O)c3cc(NS(C)(=O)=O)ccc3N2)=C(O)c2ccccc21 (stereo not drawn)	5870	> 10000	1080
CC1(CCCO)C(=O)C(C2=NS(=O)(=O)c3cc(NS(C)(=O)=O)ccc3N2)=C(O)c2ccccc21 (stereo not drawn)		860	
CC1(CC=C2CCCCC2)C(=O)C(C2=NS(=O)(=O)c3cc(NS(C)(=O)=O)ccc3N2)=C(O)c2ccccc21 (stereo not drawn)	910		195
CC(C)=CC[C@]1(C)C(=O)C(C2=NS(=O)(=O)c3cc(NS(C)(=O)=O)ccc3N2)=C(O)c2ccccc21			702
CC1(CC(O)CO)C(=O)C(C2=NS(=O)(=O)c3cc(NS(C)(=O)=O)ccc3N2)=C(O)c2ccccc21 (stereo not drawn)			450

Next, values leading:

IC50 (Hepatitis C virus [1]) [nM]	EC50 (Hepatitis C virus [2]) [nM]	IC50 [3] [nM]	SMILES
40	160	21	CC1(CC2CC2)C(=O)C(C2=NS(=O)(=O)c3cc(NS(C)(=O)=O)ccc3N2)=C(O)c2ccccc21 (stereo not drawn)
	184	20	CCCC1(C)C(=O)C(C2=NS(=O)(=O)c3cc(NS(C)(=O)=O)ccc3N2)=C(O)c2ccccc21 (stereo not drawn)
70	2170	39	CC(C)(Cl)CCC1(C)C(=O)C(C2=NS(=O)(=O)c3cc(NS(C)(=O)=O)ccc3N2)=C(O)c2ccccc21 (stereo not drawn)
194	2710	57	CC1(CCC2CCCCC2)C(=O)C(C2=NS(=O)(=O)c3cc(NS(C)(=O)=O)ccc3N2)=C(O)c2ccccc21 (stereo not drawn)
70	320	32	CC1(CCC2CCCC2)C(=O)C(C2=NS(=O)(=O)c3cc(NS(C)(=O)=O)ccc3N2)=C(O)c2ccccc21 (stereo not drawn)
7	17	4	CC(C)CCC1(C)C(=O)C(C2=NS(=O)(=O)c3cc(NS(C)(=O)=O)ccc3N2)=C(O)c2ccccc21 (stereo not drawn)
193	8000	43	CC(C)(O)CCC1(C)C(=O)C(C2=NS(=O)(=O)c3cc(NS(C)(=O)=O)ccc3N2)=C(O)c2ccccc21 (stereo not drawn)
225	690	18	C=CCC1(C)C(=O)C(C2=NS(=O)(=O)c3cc(NS(C)(=O)=O)ccc3N2)=C(O)c2ccccc21 (stereo not drawn)
32	134	19	CC(C)=CC[C@@]1(C)C(=O)C(C2=NS(=O)(=O)c3cc(NS(C)(=O)=O)ccc3N2)=C(O)c2ccccc21
36	190	16	CC1(CCC2CCC2)C(=O)C(C2=NS(=O)(=O)c3cc(NS(C)(=O)=O)ccc3N2)=C(O)c2ccccc21 (stereo not drawn)
147	237	38	CC(C)=CCC1(C)C(=O)C(C2=NS(=O)(=O)c3cc(NS(C)(=O)=O)ccc3N2)=C(O)c2ccccc21 (stereo not drawn)
